According to patent US12655116B2, “Substituted isophthalic acid diamides” (Bayer Aktiengesellschaft, priority 2020, dated 2026):

How the values were obtained:
ALOMY [1] = assay: Post-emergence herbicidal action against ALOMY; assay type: in vivo, Alopecurus myosuroides; conditions: Alopecurus myosuroides, 504 h, dosage 20 g/ha, visual assessment about 3 weeks after treatment vs untreated controls
Procedure, shortened: (§1)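 Sandy loam, greenhouse; treatment 2–3 weeks after sowing, one-leaf stage. Aqueous suspension or emulsion from WP/EC sprayed on foliage (600–800 l/ha, 0.2% wetting agent). Readout: visual % action, ~3 weeks.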

VERPE [2] = assay: Post-emergence herbicidal action against VERPE; assay type: in vivo, Veronica persica; conditions: 20 g/ha
Procedure, shortened: as §1

VIOTR [3] = assay: Post-emergence herbicidal action against VIOTR; assay type: in vivo, Viola tricolor
Procedure, shortened: as §1

SETVI [4] = assay: Post-emergence herbicidal action against SETVI; assay type: in vivo, Setaria viridis; conditions: Setaria viridis, 504 h
Procedure, shortened: as §1

AMARE [5] = assay: Pre-emergence herbicidal action against AMARE; assay type: in vivo, Amaranthus retroflexus
Procedure, shortened: (§2)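 Seeds sown in sandy loam, soil-covered; compound sprayed on soil surface pre-emergence. Application: WP/EC, 600–800 l/ha, 0.2% wetting agent. Readout: visual % damage at 3 weeks.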

DIGSA [6] = assay: Pre-emergence herbicidal action against DIGSA; assay type: in vivo, Digitaria sanguinalis
Procedure, shortened: as §2

HORMU = assay: Pre-emergence herbicidal action against HORMU; assay type: in vivo, Hordeum murinum; conditions: 80 g/ha, pre-emergence
Text: Seeds of monocotyledonous and dicotyledonous weed plants and crop plants are laid out in sandy loam soil in wood-fiber pots and covered with soil. The compounds of the invention, formulated in the form of wettable powders (WP) or as emulsion concentrates (EC), are then applied to the surface of the covering soil in the form of an aqueous suspension or emulsion at a water application rate equivalent to 600 to 800 l/ha, with addition of 0.2% wetting agent. After the treatment, the pots are placed in a greenhouse and kept under good growth conditions for the trial plants. The damage to the test plants is scored visually after a test period of 3 weeks by comparison with untreated controls (herbicidal activity in percent (%): 100% activity=the plants have died, 0% activity=like control plants). […] The tables below illustrate, in an illustrative manner, the post-emergence herbicidal action of the compounds of the invention, the herbicidal activity being stated in percent.

ABUTH [7] = assay: Post-emergence herbicidal action against ABUTH; assay type: in vivo, Abutilon theophrasti; conditions: visual assessment about 3 weeks after treatment vs untreated controls
Procedure, shortened: as §1

AMARE [8] = assay: Post-emergence herbicidal action against AMARE; assay type: in vivo, Amaranthus retroflexus; conditions: 20 g/ha, visual assessment about 3 weeks after treatment, 100% = plants have died, 0% = like control plants
Procedure, shortened: as §1

MATIN [9] = assay: Pre-emergence herbicidal action against MATIN; assay type: in vivo, Matricaria inodora
Procedure, shortened: as §2

SETVI [10] = assay: Pre-emergence herbicidal action against SETVI; assay type: in vivo, Setaria viridis; conditions: Setaria viridis, 504 h
Procedure, shortened: as §2

AVEFA [11] = assay: Pre-emergence herbicidal action against AVEFA; assay type: in vivo, Avena fatua; conditions: pre-emergence
Procedure, shortened: as §2

MATIN [12] = assay: Post-emergence herbicidal action against MATIN; assay type: in vivo, Matricaria inodora; conditions: dosage 20 g/ha
Procedure, shortened: as §1

ALOMY [13] = assay: Pre-emergence herbicidal action against ALOMY; assay type: in vivo, Alopecurus myosuroides; conditions: pre-emergence
Procedure, shortened: as §2

ECHCG = assay: Pre-emergence herbicidal action against ECHCG; assay type: in vivo, Echinochloa crus-galli; conditions: 80 g/ha
Procedure, shortened: as §2

AVEFA [14] = assay: Post-emergence herbicidal action against AVEFA; assay type: in vivo, Avena fatua; conditions: 20 g/ha, visual assessment about 3 weeks after treatment, 100% = plants have died, 0% = like control plants
Procedure, shortened: as §1

ABUTH [15] = assay: Pre-emergence herbicidal action against ABUTH; assay type: in vivo, Abutilon theophrasti
Procedure, shortened: as §2

VIOTR [16] = assay: Pre-emergence herbicidal action against VIOTR; assay type: in vivo, Viola tricolor
Procedure, shortened: as §2

DIGSA [17] = assay: Post-emergence herbicidal action against DIGSA; assay type: in vivo, Digitaria sanguinalis; conditions: Digitaria sanguinalis, 504 h
Procedure, shortened: as §1

PHBPU [18] = assay: Post-emergence herbicidal action against PHBPU; assay type: in vivo, Pharbitis purpurea; conditions: Ipomoea purpurea, 504 h
Procedure, shortened: as §1

STEME [19] = assay: Post-emergence herbicidal action against STEME; assay type: in vivo, Stellaria media
Procedure, shortened: as §1

STEME [20] = assay: Pre-emergence herbicidal action against STEME; assay type: in vivo, Stellaria media
Procedure, shortened: as §2

POLCO = assay: Pre-emergence herbicidal action against POLCO; assay type: in vivo, Polygonum convolvulus; conditions: Fallopia convolvulus, 504 h
Procedure, shortened: as §2

PHBPU [21] = assay: Pre-emergence herbicidal action against PHBPU; assay type: in vivo, Pharbitis purpurea; conditions: dosage 80 g/ha
Procedure, shortened: as §2

VERPE [22] = assay: Pre-emergence herbicidal action against VERPE; assay type: in vivo, Veronica persica; conditions: dosage 80 g/ha
Procedure, shortened: as §2

[23] = 80 g/ha, scored visually after 3 weeks vs untreated controls (100% = plants have died, 0% = like control plants)

CCNC(=O)c1c(C(F)(F)F)ccc(C(=O)Nc2nnnn2C)c1Br [Example 1-208]
pest or weed control at 20 g/ha (ALOMY [1]): 80% | pest or weed control at 20 g/ha (VERPE [2]; Veronica persica, 504 h): 80% | pest or weed control at 5 g/ha (VIOTR [3]; Viola tricolor, 504 h, 5 g/ha): 80% | pest or weed control at 20 g/ha (VIOTR [3]; Viola tricolor, 504 h, 20 g/ha): 100% | pest or weed control at 5 g/ha (SETVI [4]; dosage 5 g/ha): 80% | pest or weed control at 20 g/ha (SETVI [4]; dosage 20 g/ha): 80% | pest or weed control at 20 g/ha (AMARE [5]; Amaranthus retroflexus, 504 h, 20 g/ha, scored visually after 3 weeks vs untreated controls, 100% = plants have died, 0% = like control plants): 100% | pest or weed control at 80 g/ha (AMARE [5]; Amaranthus retroflexus, 504 h, 80 g/ha, scored visually after 3 weeks vs untreated controls, 100% = plants have died, 0% = like control plants): 100% | pest or weed control at 20 g/ha (DIGSA [6]; Digitaria sanguinalis, 504 h, dosage 20 g/ha): 100% | pest or weed control at 80 g/ha (DIGSA [6]; Digitaria sanguinalis, 504 h, dosage 80 g/ha): 100% | pest or weed control at 80 g/ha (HORMU; Hordeum murinum, 504 h): 80% | pest or weed control at 5 g/ha (ABUTH [7]; Abutilon theophrasti, 504 h, dosage 5 g/ha): 80% | pest or weed control at 20 g/ha (ABUTH [7]; Abutilon theophrasti, 504 h, dosage 20 g/ha): 90% | pest or weed control at 20 g/ha (AMARE [8]; Amaranthus retroflexus, 504 h): 100% | pest or weed control at 20 g/ha (MATIN [9]; Tripleurospermum inodorum, 504 h, dosage 20 g/ha): 90% | pest or weed control at 80 g/ha (MATIN [9]; Tripleurospermum inodorum, 504 h, dosage 80 g/ha): 100% | pest or weed control at 20 g/ha (SETVI [10]; dosage 20 g/ha): 100% | pest or weed control at 80 g/ha (SETVI [10]; dosage 80 g/ha): 100% | pest or weed control at 80 g/ha (AVEFA [11]; Avena fatua, 504 h, 80 g/ha): 100% | pest or weed control at 20 g/ha (AVEFA [11]; Avena fatua, 504 h, 20 g/ha, scored visually after 3 weeks, 100% = plants have died, 0% = like control plants): 80% | pest or weed control at 20 g/ha (MATIN [12]; Tripleurospermum inodorum, 504 h): 80% | pest or weed control at 80 g/ha (ALOMY [13]; Alopecurus myosuroides, 504 h, 80 g/ha, scored visually after 3 weeks vs untreated controls (100% = plants have died, 0% = like control plants)): 100% | pest or weed control at 20 g/ha (ALOMY [13]; Alopecurus myosuroides, 504 h, 20 g/ha, scored visually after 3 weeks, 100% = plants have died, 0% = like control plants): 80% | pest or weed control at 80 g/ha (ECHCG; Echinochloa crus-galli, 504 h): 100% | pest or weed control at 20 g/ha (AVEFA [14]; Avena fatua, 504 h): 90% | pest or weed control at 80 g/ha (ABUTH [15]; Abutilon theophrasti, 504 h, 80 g/ha, scored visually after 3 weeks vs untreated controls (100% = plants have died, 0% = like control plants)): 100% | pest or weed control at 20 g/ha (ABUTH [15]; Abutilon theophrasti, 504 h, dosage 20 g/ha, scored visually after 3 weeks vs untreated controls, 100% = plants have died, 0% = like control plants, read-out: Pre-emergence action against ABUTH (herbicidal activity in percent)): 100% | pest or weed control at 20 g/ha (VIOTR [16]; Viola tricolor, 504 h, dosage 20 g/ha): 100% | pest or weed control at 80 g/ha (VIOTR [16]; Viola tricolor, 504 h, dosage 80 g/ha): 100% | pest or weed control at 5 g/ha (DIGSA [17]; 5 g/ha): 80% | pest or weed control at 20 g/ha (DIGSA [17]; 20 g/ha): 90% | pest or weed control at 5 g/ha (PHBPU [18]; dosage 5 g/ha): 80% | pest or weed control at 20 g/ha (PHBPU [18]; dosage 20 g/ha): 90% | pest or weed control at 20 g/ha (STEME [19]; Stellaria media, 504 h, 20 g/ha): 90% | pest or weed control at 5 g/ha (STEME [19]; Stellaria media, 504 h, dosage 5 g/ha): 90% | pest or weed control at 20 g/ha (STEME [20]; Stellaria media, 504 h, dosage 20 g/ha): 100% | pest or weed control at 80 g/ha (STEME [20]; Stellaria media, 504 h, dosage 80 g/ha): 100% | pest or weed control at 20 g/ha (POLCO; dosage 20 g/ha): 80% | pest or weed control at 80 g/ha (POLCO; dosage 80 g/ha): 90%

CCCn1nnnc1NC(=O)c1ccc(C(F)(F)F)c(C(=O)NC(C)=O)c1Cl [Example 3-337]
Post-emergence action against VERPE in % (VERPE [2]): 90% | Post-emergence action against VIOTR in % (VIOTR [3]; 20 g/ha): 100% | Pre-emergence action against PHBPU in % (PHBPU [21]): 90% | Pre-emergence action against AMARE in % (AMARE [5]; 20 g/ha, scored visually after 3 weeks vs untreated controls, 100% = plants have died, 0% = like control plants): 100% | Pre-emergence action against AMARE in % (AMARE [5]; [23]): 100% | Pre-emergence action against DIGSA in % (DIGSA [6]; dosage 20 g/ha): 90% | Pre-emergence action against DIGSA in % (DIGSA [6]; dosage 80 g/ha): 100% | Pre-emergence action against HORMU in % (HORMU): 100% | Post-emergence action against ABUTH in % (ABUTH [7]; dosage 5 g/ha): 80% | Post-emergence action against ABUTH in % (ABUTH [7]; dosage 20 g/ha): 80% | Post-emergence action at 20 g/ha against AMARE in % (AMARE [8]): 100% | Pre-emergence action against MATIN in % (MATIN [9]; dosage 80 g/ha): 100% | Pre-emergence action against AVEFA in % (AVEFA [11]; 80 g/ha): 100% | Post-emergence action against MATIN in % (MATIN [12]): 80% | Pre-emergence action against ALOMY (herbicidal activity) (ALOMY [13]; [23]): 100% | Pre-emergence action against VERPE in % (VERPE [22]): 100% | Pre-emergence action against ECHCG in % (ECHCG): 90% | Post-emergence action at 20 g/ha against AVEFA in % (AVEFA [14]): 80% | Pre-emergence action against ABUTH (herbicidal activity) (ABUTH [15]; [23]): 100% | Pre-emergence action against ABUTH (herbicidal activity in percent) (ABUTH [15]; dosage 20 g/ha, scored visually after 3 weeks vs untreated controls, 100% = plants have died, 0% = like control plants): 100% | Pre-emergence action against VIOTR in % (VIOTR [16]; dosage 20 g/ha): 100% | Pre-emergence action against VIOTR in % (VIOTR [16]; dosage 80 g/ha): 100% | Post-emergence action against STEME in % (STEME [19]; 20 g/ha): 100% | Pre-emergence action against STEME in % (STEME [20]; dosage 80 g/ha): 100%
